Laboratory results reported in US20100267743A1, “3-(PHENOXYPYRROLIDIN-3-YL-METHYL)HETEROARYL, 3-(PHENYLPYRROLIDIN-3-YLMETHOXY)HETEROARYL, AND 3-(HETEROARYLPYRROLIDIN-3-YLMETHOXY)HETEROARYL COMPOUNDS” (priority 2009, published 2010).

Experiments:
SERT = SERT (Homo sapiens, UniProt P31645); assay: hSERT radioligand binding assay (3H-citalopram); set-up: expressed in transfected cells; host or cells: HEK-293; conditions: hSERT membranes (HEK-293), 1.0 nM 3H-citalopram; for Ki: read-out: SERT pKi (converted)
Protocol: (§1) Membrane radioligand binding assays were used to measure inhibition of labeled ligand (^3H-citalopram or ^3H-nisoxetine or ^3H-WIN35428) binding to membranes prepared from cells expressing the respective human recombinant transporter (hSERT or hNET or hDAT) in order to determine the pKi values of test compounds at the transporters.
(§2) Recombinant human embryonic kidney (HEK-293) derived cell lines stably transfected with hSERT or hNET, respectively, were grown in DMEM medium supplemented with 10% dialyzed FBS (for hSERT) or FBS (for hNET), 100 μg/ml penicillin, 100 μg/ml streptomycin, 2 mM L-glutamine and 250 μg/ml of the aminoglycoside antibiotic G418, in a 5% CO2 humidified incubator at 37° C. When cultures reached 80% confluence, the cells were washed thoroughly in PBS (without […] and Mg^2+) and lifted with 5 mM EDTA in PBS. Cells were pelleted by centrifugation, resuspended in lysis buffer (10 mM Tris-HCl, pH7.5 containing 1 mM EDTA), homogenized, pelleted by centrifugation, then resuspended in 50 mM Tris-HCl, pH 7.5 and 10% sucrose at 4° C. Protein concentration of the membrane suspension was determined using a Bio-Rad Bradford Protein Assay kit. Membranes were snap frozen and stored at −80° C. Chinese hamster ovary membranes expressing hDAT (CHO-DAT) were purchased from PerkinElmer and stored at −80° C.
(§3) Binding assays were performed in a 96-well assay plate in a total volume of 200 μl assay buffer (50 mM Tris-HCl, 120 mM NaCl, 5 mM KCl, pH 7.4) with 0.5, 1, and 3 μg membrane protein, for SERT, NET and DAT, respectively.
(§4) Stock solutions (10 mM in DMSO) of test compound were prepared and serial dilutions made using Dilution Buffer (50 mM Tris-HCl, 120 mM NaCl, 5 mM KCl, pH 7.4, 0.1% BSA, 400 μM ascorbic acid).
(§5) Following a 60 minute incubation at 22° C. (or a period sufficient to reach equilibrium), the membranes were harvested by rapid filtration over a 96-well UniFilter GF/B plate, pretreated with 0.3% polyethyleneimine, and washed 6 times with 300 μl wash buffer (50 mM Tris-HCl, 0.9% NaCl, pH 7.5 at 4° C.). Plates were dried overnight at room temperature, ˜45 μl of MicroScint™-20 (Perkin Elmer) added and bound radioactivity quantitated via liquid scintillation spectroscopy. Inhibition curves and saturation isotherms were analyzed using GraphPad Prism Software package (GraphPad Software, Inc., San Diego, Calif.). IC50 values were generated from concentration response curves using the Sigmoidal Dose Response (variable slope) algorithm in Prism GraphPad. Kd and Bmax values for the radioligand were generated from saturation isotherms using the Saturation Binding Global Fit algorithm in Prism GraphPad. pKi (negative decadic logarithm of Ki) values for test compounds were calculated from the best-fit IC50 values, and the Kd value of the radioligand, using the Cheng-Prusoff equation (Cheng & Prusoff (1973) Biochem. Pharmacol. 22(23):3099-3108): Ki=IC50/(1+[L]/Kd), where [L]=concentration radioligand.

NET = NET (Homo sapiens, UniProt P23975); assay: hNET radioligand binding assay (3H-nisoxetine); set-up: expressed in transfected cells; host or cells: HEK-293; conditions: hNET membranes (HEK-293), 1.0 nM 3H-nisoxetine; for Ki: read-out: NET pKi (converted)
Protocol: as §1, §2, §3, §4, §5

NET, sequence (P23975 whole entry): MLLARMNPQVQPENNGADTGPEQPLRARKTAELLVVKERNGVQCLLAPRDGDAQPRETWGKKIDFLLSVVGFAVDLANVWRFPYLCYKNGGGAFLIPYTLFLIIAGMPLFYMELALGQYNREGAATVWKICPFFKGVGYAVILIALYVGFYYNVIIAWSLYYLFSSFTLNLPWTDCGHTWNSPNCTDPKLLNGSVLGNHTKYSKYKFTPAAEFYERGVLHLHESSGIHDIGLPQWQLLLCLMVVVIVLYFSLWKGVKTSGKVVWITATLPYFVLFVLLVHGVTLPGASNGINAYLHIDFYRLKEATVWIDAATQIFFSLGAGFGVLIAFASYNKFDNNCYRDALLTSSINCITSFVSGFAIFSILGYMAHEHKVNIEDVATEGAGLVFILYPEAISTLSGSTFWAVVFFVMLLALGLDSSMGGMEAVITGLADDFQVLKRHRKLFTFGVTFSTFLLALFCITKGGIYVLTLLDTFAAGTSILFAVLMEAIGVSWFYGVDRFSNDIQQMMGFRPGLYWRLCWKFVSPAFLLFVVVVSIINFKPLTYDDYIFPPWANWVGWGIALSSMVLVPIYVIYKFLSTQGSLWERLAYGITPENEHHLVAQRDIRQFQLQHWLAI
SERT, sequence (P31645 whole entry): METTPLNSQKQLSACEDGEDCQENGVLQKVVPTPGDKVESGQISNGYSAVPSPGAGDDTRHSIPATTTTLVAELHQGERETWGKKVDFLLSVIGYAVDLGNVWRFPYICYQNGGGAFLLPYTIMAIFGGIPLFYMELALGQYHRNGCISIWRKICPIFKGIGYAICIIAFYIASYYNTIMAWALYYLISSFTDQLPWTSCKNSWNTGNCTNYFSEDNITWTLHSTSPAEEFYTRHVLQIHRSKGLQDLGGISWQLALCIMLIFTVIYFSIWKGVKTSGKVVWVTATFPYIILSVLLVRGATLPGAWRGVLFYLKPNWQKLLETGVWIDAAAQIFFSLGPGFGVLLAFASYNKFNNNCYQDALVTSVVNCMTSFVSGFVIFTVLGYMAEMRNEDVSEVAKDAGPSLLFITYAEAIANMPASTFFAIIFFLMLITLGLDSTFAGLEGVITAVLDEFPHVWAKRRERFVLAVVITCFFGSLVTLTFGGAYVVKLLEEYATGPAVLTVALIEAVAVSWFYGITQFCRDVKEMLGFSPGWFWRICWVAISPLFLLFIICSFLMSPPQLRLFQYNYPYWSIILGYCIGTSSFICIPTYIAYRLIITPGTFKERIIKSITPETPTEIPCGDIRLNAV

| Compound | SERT pKi (SERT) | NET pKi (NET) | Ki (SERT) [nM] | Ki (NET) [nM] |
| --- | --- | --- | --- | --- |
| Cc1cc(Cl)c(O[C@H](c2nccs2)[C@H]2CCNC2)c(Cl)c1 [Example 5-14] | ≧7.0 | ≧5.0 |  |  |
| FC(F)(F)c1ccc(O[C@H](c2ccccc2)[C@@H]2CCNC2)nc1.O=C(O)C(F)(F)F [14-24] | ≧7.0 | ≧5.0 |  |  |
| CCc1cc(F)ccc1O[C@H](c1cncc(F)c1)[C@@H]1CCNC1 [Example 2-58, 3-[(R)-(2-Ethy1-4-fluorophenoxy)-(S)-pyrrolidin-3-yl-methyl]-5-fluoropyridine] | ≧7.0 | ≧7.0 |  |  |
| Cc1nc(O[C@@H](c2ccccc2)[C@H]2CCNC2)c(Br)cc1Br.O=C(O)C(F)(F)F [14-12] | ≧7.0 | ≧7.0 |  |  |
| Cc1cc(Cl)cc(C)c1OC(c1cncc(F)c1)C1CCNC1 [Example 2-46, 3-[(R)-(4-Chloro-2,6-dimethylphenoxy)-(S)-pyrrolidin-3-yl-methy1]-5-fluoropyridine] |  |  | ≤ 100 | ≤ 10000 |
| Clc1ccc(OC(c2ncco2)C2CCNC2)c(Cc2ccccc2)c1 (stereo not shown) [6-16] | ≧7.0 | ≧7.0 |  |  |
| Fc1cc(F)c(O[C@@H](c2cncc(Cl)c2)[C@H]2CCNC2)c(F)c1 [Example 2-33, 3-Chloro-5-[(R)-(S)-pyrrolidin-3-yl-(2,4,6-trifluorophenoxy)methyl]pyridine] |  |  | ≤ 100 | ≤ 100 |
| O=C(O)C(F)(F)F.c1ccc(-c2ccccc2O[C@@H](c2ncco2)[C@H]2CCNC2)cc1 [6-42] | ≧5.0 | ≧7.0 |  |  |
| CCc1cc(F)cc(F)c1O[C@H](c1cncc(F)c1)[C@@H]1CCNC1 [Example 2-57, 3-[(R)-(2-Ethy1-4,6-difluorophenoxy)-(S)-pyrrolidin-3-yl-methyl]-5-fluoropyridine] | ≧7.0 | ≧7.0 |  |  |
| Fc1nc(OC(c2ccccc2)C2CCNC2)c(F)c(F)c1F (stereo not shown) [14-42] | ≧5.0 | ≧5.0 |  |  |
| Cc1cc(Cl)ccc1O[C@H](c1cnccn1)[C@H]1CCNC1 [10-6] |  |  | ≤ 100 | ≤ 10000 |
| Cc1cc(Cl)ccc1O[C@@H](c1ncco1)[C@H]1CCNC1.O=C(O)C(F)(F)F [6-34] | ≧7.0 | ≧7.0 |  |  |
| Fc1ccc(F)c(OC(c2nccs2)C2CCNC2)c1Cl [Example 5-16, 2-[((S)-(2-Chloro-3,6-difluorophenoxy)-((S)-pyrrolidin-3-yl-methyl]thiazole] |  |  | ≤ 100 | ≤ 100 |
| Cc1cc(Cl)ccc1O[C@H](c1ncco1)[C@H]1CCNC1 [6-35] |  |  | ≤ 100 | ≤ 10000 |
| Clc1cc(-c2ccccc2)ccc1O[C@@H](c1ncco1)[C@H]1CCNC1.O=C(O)C(F)(F)F [6-25] | ≧5.0 | ≧7.0 |  |  |
| Fc1cnc(O[C@@H](c2ccccc2)[C@H]2CCNC2)c(F)c1.O=C(O)C(F)(F)F [14-17] | ≧5.0 | ≧7.0 |  |  |
| COc1cc(F)c(O[C@H](c2nccs2)C2CCNC2)c(F)c1 (stereo partly shown) [Example 5-29] | ≧7.0 | ≧5.0 |  |  |
| Clc1cccc(Cl)c1O[C@H](c1cccnc1)[C@H]1CCNC1 [Example 2-73, 3-[(S)-(2,6-Dichlorophenoxy)-(S)-pyrrolidin-3-yl-methyl]pyridine] |  |  | ≤ 100 | ≤ 100 |
| Cc1cc(Cl)ccc1O[C@@H](c1cncnc1)[C@H]1CCNC1.O=C(O)C(F)(F)F [12-3] | ≧7.0 | ≧7.0 |  |  |
| COc1ncccc1O[C@@H](c1ccccc1)C1CCNC1 (stereo partly shown) [15-16] |  |  | ≤ 100 | ≤ 100 |
| CCOc1ncccc1O[C@@H](c1ccccc1)[C@H]1CCNC1.O=C(O)C(F)(F)F [15-20] | ≧7.0 | ≧7.0 |  |  |
| O=C(O)C(F)(F)F.c1ccc2cc(O[C@@H](c3ncco3)[C@H]3CCNC3)ccc2c1 [20-1] | ≧7.0 | ≧7.0 |  |  |
| Cc1cc(Cl)c(O[C@@H](c2ncco2)[C@H]2CCNC2)cc1F.O=C(O)C(F)(F)F [6-24] | ≧7.0 | ≧7.0 |  |  |
